Patent US20230218639A1, “USE OF OXYGENATED CHOLESTEROL SULFATES FOR TREATING NEUROLOGICAL CONDITIONS, NEURODEGENERATIVE DISEASES, AND ADDICTION” (Durect Corporation, priority 2020, published 2023)
“And” between values parts separate entries of the source, which are not always exact repeats. Equal values may be shown once. Read-outs that look alike come from different tables or passages of the source.

What was measured:
[1] = design: species or system rats; conditions: Sprague Dawley, rat, in vivo, po, 75 mg/kg
[2] = tested on: ^5mCpG in promoter regions, Huh-7 cells; assay: Whole genome bisulfite sequencing (WGBS); type: cell-based, human
Method: (§1) Each sample, 2 μg, was sent to EpigenDx, Inc. (Hopkinton, Mass.) for analysis of global methylation bisulfite sequencing. The same samples, 6 μg, were sent to Novogene Co., Ltd (Tianjin, China) for analysis of whole genome bisulfite sequencing (WGBS). Total RNA was isolated using the Promega SV total RNA isolation system (Madison, Wis.) with DNase treatment. Each sample, 2 μg, was used for the first-strand cDNA synthesis as recommended by the manufacturer (Invitrogen, Carlsbad, Calif.). Real-time RT-PCR was performed using SYBR Green as the indicator on ABI 7500 Fast Real-Time PCR System (Applied Biosystems, Foster City, Calif.). Amplifications of β-actin or GAPDH were used as internal controls. Relative messenger RNA (mRNA) expression was quantified with the comparative cycle threshold (Ct) method using the primer set shown in Table 1.1 and was expressed as 2^−ΔΔCt.
Each sample, 5.2 μg of genomic DNA spiked with 26 ng lambda DNA, was fragmented by sonication to 200-300 bp with Covaris S220, followed by end repair and adenylation. Cytosine-methylated barcodes were ligated to sonicated DNA per the manufacturer's instructions. These DNA fragments were treated twice with bisulfite using EZ DNA Methylation-Gold™ Kit (Zymo Research) before the resulting single-strand DNA fragments were PCR amplified using KAPA HiFi Hot Start Uracil and Ready Mix (2×). Library concentration was quantified by Qubit® 2.0 Flurometer (Life Technologies, CA, USA) and quantitative PCR, and the insert size was assayed on an Agilent Bioanalyzer 2100 system.
The library preparations were sequenced on an Illumina Hiseq 2500/4000 or Novaseq platform and 125 bp/150 bp paired-end reads were generated. Image analysis and base calling were performed with Illumina CASAVA pipeline. Trimmomatic (Trimmomatic-0.36) software was used for quality control. Bismark software (version 0.16.3; Krueger F, 2011) was used to perform alignments of bisulfite-treated reads to a reference genome (−×700—dovetail). DSS software (23) was used to identify differentially methylated regions (DMRs). KOBAS software was used to test the statistical enrichment of DMR related genes in the Kyoto Encyclopedia of Genes and Genomes (KEGG) pathways.
Each sample (6 μg) was used for analysis of the whole genome bisulfite sequencing (WGBS).

[3] = Excretion mass balance, single intravenous dose; type: in vivo, Sprague Dawley rats; conditions: intravenous 10 mg/kg, over 168 hours
Method: (§2) Nine male Sprague Dawley rats (Group 1) were designated for the pharmacokinetic phase, 3 male Sprague Dawley rats (Group 2) for the excretion mass balance phase, and 7 male Sprague Dawley rats (Group 3) and 9 male Long Evans rats (Group 4) for the tissue distribution phase. All animals received a single intravenous dose of [^14C]-25HC3S at 10 mg/kg and a target radioactivity of 225 μCi/kg. Blood samples were collected from all Group 1 animals at approximately 0.083, 0.25, 0.5, 1, 2, 4, 8, 12, 24, 48, and 72 hours post-dose. Urine and feces were collected from all Group 2 animals periodically through 168 hours post-dose. […] Following blood collection, animals were euthanized by CO2 inhalation and carcasses frozen in a dry ice/hexane bath for processing by quantitative whole body autoradiography. Whole blood, plasma, urine, feces, cage rinse, and cage wash were analyzed for total radioactivity by liquid scintillation counting.

DNMT3a = DNMT3a (Homo sapiens, UniProt Q9Y6K1); assay: DNMT3a activity assay (Lambda DNA substrate, ^3H-SAM); type: biochemical; conditions: read-out: IC50, DNMT3a activity
Sequence of DNMT3a (Q9Y6K1 whole entry, looked up): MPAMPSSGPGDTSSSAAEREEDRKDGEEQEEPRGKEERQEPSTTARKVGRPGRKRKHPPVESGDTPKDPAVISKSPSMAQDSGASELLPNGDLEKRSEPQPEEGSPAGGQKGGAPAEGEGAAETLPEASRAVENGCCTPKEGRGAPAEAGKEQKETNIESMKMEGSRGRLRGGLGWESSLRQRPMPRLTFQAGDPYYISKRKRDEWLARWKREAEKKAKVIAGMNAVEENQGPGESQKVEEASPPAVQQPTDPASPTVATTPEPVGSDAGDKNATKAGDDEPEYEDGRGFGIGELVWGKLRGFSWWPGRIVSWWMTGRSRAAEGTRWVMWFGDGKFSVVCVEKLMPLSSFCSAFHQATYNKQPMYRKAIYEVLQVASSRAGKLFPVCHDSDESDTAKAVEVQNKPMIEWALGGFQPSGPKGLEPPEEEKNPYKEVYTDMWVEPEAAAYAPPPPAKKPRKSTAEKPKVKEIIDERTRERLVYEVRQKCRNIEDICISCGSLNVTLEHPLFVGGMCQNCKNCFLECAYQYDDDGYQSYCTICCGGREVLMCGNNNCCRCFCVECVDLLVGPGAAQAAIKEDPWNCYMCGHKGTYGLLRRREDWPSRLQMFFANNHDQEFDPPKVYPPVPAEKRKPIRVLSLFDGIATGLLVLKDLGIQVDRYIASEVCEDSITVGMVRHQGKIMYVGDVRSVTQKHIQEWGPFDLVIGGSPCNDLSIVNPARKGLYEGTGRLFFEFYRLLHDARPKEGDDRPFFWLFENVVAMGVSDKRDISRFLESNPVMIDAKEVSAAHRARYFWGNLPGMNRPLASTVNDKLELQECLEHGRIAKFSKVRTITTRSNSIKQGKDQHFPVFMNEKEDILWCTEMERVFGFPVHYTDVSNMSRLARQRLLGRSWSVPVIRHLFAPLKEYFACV
Method: (§3) For the DNMT1 activity assay, the substrate solution, 0.001 mg/ml Poly(dI-dC):Poly(dI-dC) in 50 mM Tris-HCl, pH 7.5, 50 mM NaCl, 5 mM EDTA, 5 mM DTT, 1 mM PMSF, 5% glycerol, 0.01% Brij35, 1% DMSO was used. For the DNMT3a/3b activity assay, 0.0075 mg/ml Lambda DNA in 50 mM Tris-HCl, pH 7.5, 50 mM NaCl, 5 mM EDTA, 5 mM DTT, 1 mM PMSF, 5% glycerol, 1% DMSO, was used. The indicated DNMT1, DNMT3a, or DNMT3b was added to the appropriate substrate solution and gently mixed. […] The mixtures were first incubated for 15 min, then ^3H-SAM was added to the reaction mixture to initiate the reaction, and the mixture was incubated for 60 min at 30° C. Following incubation, the reaction mixture was finally transferred to filter-paper for detection of radioactivity counts.

[4] = Plasma pharmacokinetics, single intravenous dose; type: in vivo, Sprague Dawley rats; conditions: single intravenous (bolus) dose 10 mg/kg
Method: as §2

[5] = Metabolite profiling of plasma, urine, feces, intravenous dose; type: in vivo, Sprague Dawley rats; conditions: intravenous 10 mg/kg
Method: as §2

DNMT1 = DNMT1 (Homo sapiens, UniProt P26358); assay: DNMT1 activity assay (Poly(dI-dC) substrate, ^3H-SAM); type: biochemical; conditions: read-out: IC50, DNMT-1 activity
Sequence of DNMT1 (P26358 whole entry): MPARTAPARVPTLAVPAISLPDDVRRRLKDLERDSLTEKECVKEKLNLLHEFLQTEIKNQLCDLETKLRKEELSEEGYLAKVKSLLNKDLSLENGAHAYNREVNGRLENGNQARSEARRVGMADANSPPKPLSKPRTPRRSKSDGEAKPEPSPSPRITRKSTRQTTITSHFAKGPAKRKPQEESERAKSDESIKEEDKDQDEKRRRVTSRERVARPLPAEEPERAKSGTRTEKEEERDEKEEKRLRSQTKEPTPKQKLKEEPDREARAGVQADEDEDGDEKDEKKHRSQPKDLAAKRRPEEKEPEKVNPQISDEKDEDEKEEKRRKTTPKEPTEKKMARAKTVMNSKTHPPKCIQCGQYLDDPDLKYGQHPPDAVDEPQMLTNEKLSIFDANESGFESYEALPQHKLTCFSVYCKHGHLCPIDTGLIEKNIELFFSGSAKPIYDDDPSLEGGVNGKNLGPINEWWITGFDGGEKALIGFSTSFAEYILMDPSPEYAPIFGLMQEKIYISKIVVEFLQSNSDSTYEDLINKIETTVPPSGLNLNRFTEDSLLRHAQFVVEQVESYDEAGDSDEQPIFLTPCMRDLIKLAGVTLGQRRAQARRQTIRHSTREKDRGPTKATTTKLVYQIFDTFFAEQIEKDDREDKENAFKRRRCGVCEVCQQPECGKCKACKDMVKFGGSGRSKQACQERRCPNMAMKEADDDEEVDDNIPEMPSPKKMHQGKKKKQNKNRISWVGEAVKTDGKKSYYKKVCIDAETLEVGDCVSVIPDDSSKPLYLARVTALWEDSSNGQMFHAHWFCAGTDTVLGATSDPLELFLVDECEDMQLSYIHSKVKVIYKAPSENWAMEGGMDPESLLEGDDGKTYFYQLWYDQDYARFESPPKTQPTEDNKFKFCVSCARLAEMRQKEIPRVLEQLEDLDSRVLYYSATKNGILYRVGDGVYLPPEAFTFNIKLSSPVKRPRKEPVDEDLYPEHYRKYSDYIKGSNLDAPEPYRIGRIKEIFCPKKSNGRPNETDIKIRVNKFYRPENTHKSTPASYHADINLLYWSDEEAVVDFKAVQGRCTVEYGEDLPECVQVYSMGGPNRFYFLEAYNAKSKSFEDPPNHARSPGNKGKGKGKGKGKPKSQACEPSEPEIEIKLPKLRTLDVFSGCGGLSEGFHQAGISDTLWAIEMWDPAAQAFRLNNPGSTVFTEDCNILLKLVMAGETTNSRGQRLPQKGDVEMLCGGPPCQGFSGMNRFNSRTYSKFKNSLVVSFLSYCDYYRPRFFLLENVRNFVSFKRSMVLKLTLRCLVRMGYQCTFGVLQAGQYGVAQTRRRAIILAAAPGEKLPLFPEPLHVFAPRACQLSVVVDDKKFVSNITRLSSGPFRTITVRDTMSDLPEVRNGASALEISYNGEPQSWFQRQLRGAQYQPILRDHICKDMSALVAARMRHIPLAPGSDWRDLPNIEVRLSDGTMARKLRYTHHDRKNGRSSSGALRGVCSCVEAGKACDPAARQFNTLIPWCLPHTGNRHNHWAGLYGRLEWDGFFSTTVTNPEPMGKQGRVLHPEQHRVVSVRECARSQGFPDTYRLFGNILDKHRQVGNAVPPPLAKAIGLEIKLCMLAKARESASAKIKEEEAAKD
Method: as §3

DNMT3b = DNMT3b (Homo sapiens, UniProt Q9UBC3); assay: DNMT3b activity assay (Lambda DNA substrate, ^3H-SAM); type: biochemical; conditions: read-out: IC50, DNMT3b activity
Method: as §3

Huh-7 cells = assay: Real-time RT-PCR gene expression; type: cell-based, human; conditions: Huh-7, HG 72 hours; 25HC3S 6.25-50 μM, 1-8 hours
Method: as §1, with “FIGS. 3A-3D. Expression of key genes related to signaling pathways. […] Key Genes and their targeting genes expression were determined by RT-PCR analysis. […] Each” for “Each”, “[…],” for “EpigenDx,”, “Each sample, 2 μg, was used for the first-strand cDNA synthesis as recommended by the manufacturer (Invitrogen, Carlsbad, Calif.).” left out, “2^-ΔΔCt.” for “2^−ΔΔCt.”

[6] = Tissue distribution by quantitative whole body autoradiography, intravenous dose; type: in vivo, Sprague Dawley rats; conditions: intravenous 10 mg/kg
Method: as §2

## C[C@H](CCCC(C)(C)O)[C@H]1CC[C@H]2[C@@H]3CC=C4C[C@@H](OS(=O)(=O)O)CC[C@]4(C)[C@H]3CC[C@]12C [25HC3S, 5-Cholesten-3β, 25-diol 3-sulfate]
[1]
  dose recovered in urine, feces, and cage rinse: approximately 94.5%
  recovered radioactivity in feces: 94.2%
[2]; of 180 total genes
  genes with demethylated ^5mCpG in promoter regions, Calcium pathway: 19 genes
[2]; of 200 total genes
  genes with demethylated ^5mCpG in promoter regions, cAMP pathway: 28 genes
[2]; of 257 total genes
  genes with demethylated ^5mCpG in promoter regions, MAPK signaling pathway: 23 genes
[2]; p<0.05, Huh-7, HG 72 hours, 25 μM 25HC3S 4 hours
  number of KEGG pathways enriched in hypomethylated genes: 79 KEGG pathways and 75 KEGG pathways
[3]
  dose recovered in urine, feces, and cage rinse: approximately 100.2%
  recovered radioactivity in feces: 83.0%
DNMT3a
  IC50: 3.03 µM
[4]
  plasma AUClast: 27,900 h*ng-equiv./g
[4]; PK phase
  terminal elimination phase T1/2, plasma: 26.6 h
[5]; 0 to 48 hours post-dose
  % of dose in feces: 2 % of dose
[5]; up to 1 hour post-dose
  share of exposure (AUC) to 25HC3S related radioactivity in plasma: approximately 54%
DNMT1
  IC50: 4.04 µM
DNMT3b
  IC50: 9.05 µM
Huh-7 cells
  decreased expression of FAS: ~90%
  decreased expression of HMGR: ~90%
  increased expression of CREB5: up to 20 fold
  increased expression of DUSP8: 5 fold
  increased expression of PGC1A: 12 fold
[6]
  AUClast in liver: ≤ 364,000 h ng/g
  tissues in which radioactivity was detected: all tissues except the eye (lens)
  whole blood AUClast: 25,200 h*ng-equiv./g
[6]; QWBA phase
  T1/2 in plasma: 44.3 h
  T1/2 in whole blood: 52.2 h
